The target in assay [1] is T1, Cyclin-G-associated kinase (Homo sapiens, UniProt O14976).
T1 sequence (O14976 whole entry): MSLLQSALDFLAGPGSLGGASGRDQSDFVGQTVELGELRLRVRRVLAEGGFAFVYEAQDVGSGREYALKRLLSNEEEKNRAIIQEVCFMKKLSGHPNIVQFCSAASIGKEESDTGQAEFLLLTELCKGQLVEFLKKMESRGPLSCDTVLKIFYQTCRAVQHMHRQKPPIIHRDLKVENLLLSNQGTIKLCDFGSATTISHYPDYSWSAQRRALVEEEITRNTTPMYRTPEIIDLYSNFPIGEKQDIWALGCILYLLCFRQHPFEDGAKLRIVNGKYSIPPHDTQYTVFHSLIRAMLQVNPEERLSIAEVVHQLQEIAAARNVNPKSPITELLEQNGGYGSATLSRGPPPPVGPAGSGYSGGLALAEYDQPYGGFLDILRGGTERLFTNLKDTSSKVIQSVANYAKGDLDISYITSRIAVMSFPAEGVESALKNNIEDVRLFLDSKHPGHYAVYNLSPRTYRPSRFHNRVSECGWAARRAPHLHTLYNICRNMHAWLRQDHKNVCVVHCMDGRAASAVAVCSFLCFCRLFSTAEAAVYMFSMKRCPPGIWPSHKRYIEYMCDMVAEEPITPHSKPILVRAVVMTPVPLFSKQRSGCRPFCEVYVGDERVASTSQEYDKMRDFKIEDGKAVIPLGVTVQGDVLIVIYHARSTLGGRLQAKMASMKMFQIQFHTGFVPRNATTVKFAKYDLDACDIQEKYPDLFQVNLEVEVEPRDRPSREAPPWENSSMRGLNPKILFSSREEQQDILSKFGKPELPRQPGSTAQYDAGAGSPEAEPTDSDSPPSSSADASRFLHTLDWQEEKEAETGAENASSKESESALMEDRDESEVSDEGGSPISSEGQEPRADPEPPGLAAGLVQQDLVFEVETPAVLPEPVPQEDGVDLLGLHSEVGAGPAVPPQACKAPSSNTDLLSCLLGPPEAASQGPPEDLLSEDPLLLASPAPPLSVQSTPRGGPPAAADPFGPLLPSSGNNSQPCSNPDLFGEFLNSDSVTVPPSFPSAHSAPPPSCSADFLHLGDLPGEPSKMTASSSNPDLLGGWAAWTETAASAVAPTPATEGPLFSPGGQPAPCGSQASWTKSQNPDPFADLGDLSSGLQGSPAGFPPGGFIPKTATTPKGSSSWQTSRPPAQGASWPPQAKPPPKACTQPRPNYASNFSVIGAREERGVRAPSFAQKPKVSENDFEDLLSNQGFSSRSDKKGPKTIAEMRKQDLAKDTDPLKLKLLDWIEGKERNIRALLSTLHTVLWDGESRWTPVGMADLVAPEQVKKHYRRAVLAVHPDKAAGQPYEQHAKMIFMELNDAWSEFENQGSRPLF
In words: Binding affinity to human wild type partial length GAK (G13 to Y338 residues) expressed in bacterial expression system by KinomeScan method.

The target of assay [2] is RAF proto-oncogene serine/threonine-protein kinase (Homo sapiens) (UniProt P04049). As to the kind of experiment: Inhibition of human wild type partial length C-Raf (I330 to T640 residues) expressed in bacterial expression system at 1 uM by Kinomescan method relative to control.
The target of assay [3] is T2, Tyrosine-protein kinase ABL1 (Homo sapiens, UniProt P00519). As to the kind of experiment: Binding affinity to human wild type partial length non-phosphorylated ABL1 (S229 to K512 residues) expressed in mammalian expression system by Kinomescan method.
The next assay has as its target Activin receptor type-1 (Homo sapiens, UniProt Q04771). In words: Binding affinity to human wild type partial length ACVR1 (C188 to C509 residues) expressed in bacterial expression system by Kinomescan method.
The target of assay [4] is Atypical kinase COQ8A, mitochondrial (Homo sapiens, UniProt Q8NI60). In words: Binding affinity to human wild type full-length ADCK3 expressed in bacterial expression system by Kinomescan method.
Another assay addresses T3, Ephrin type-B receptor 6 (Homo sapiens, UniProt O15197).
T3 sequence (O15197 whole entry): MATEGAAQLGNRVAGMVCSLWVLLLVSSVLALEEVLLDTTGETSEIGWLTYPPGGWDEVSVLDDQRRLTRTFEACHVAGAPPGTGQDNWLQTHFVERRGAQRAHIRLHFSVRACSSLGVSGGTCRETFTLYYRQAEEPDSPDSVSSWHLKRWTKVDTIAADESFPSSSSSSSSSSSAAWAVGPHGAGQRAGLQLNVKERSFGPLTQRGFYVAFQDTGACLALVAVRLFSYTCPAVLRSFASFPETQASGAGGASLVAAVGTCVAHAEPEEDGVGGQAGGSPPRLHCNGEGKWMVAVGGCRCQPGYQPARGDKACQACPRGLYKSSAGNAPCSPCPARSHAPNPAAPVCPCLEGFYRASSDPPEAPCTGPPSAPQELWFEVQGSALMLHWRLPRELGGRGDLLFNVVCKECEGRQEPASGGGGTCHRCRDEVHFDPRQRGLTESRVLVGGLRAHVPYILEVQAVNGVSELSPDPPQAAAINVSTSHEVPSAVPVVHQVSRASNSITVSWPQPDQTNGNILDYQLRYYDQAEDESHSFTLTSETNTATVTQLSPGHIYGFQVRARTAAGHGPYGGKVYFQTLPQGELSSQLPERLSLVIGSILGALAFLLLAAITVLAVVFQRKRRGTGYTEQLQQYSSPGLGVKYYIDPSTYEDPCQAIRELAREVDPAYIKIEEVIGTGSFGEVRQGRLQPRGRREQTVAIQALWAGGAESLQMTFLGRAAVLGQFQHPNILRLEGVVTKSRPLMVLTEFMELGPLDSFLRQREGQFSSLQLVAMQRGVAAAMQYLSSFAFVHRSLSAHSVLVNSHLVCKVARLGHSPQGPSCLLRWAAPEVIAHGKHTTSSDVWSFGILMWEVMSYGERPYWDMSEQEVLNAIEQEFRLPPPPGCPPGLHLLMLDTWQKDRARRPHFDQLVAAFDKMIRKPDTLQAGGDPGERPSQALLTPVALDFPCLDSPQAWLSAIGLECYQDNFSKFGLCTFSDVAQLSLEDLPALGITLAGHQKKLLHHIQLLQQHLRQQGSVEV
As to the kind of experiment: Binding affinity to human wild type partial length EphB6 (Q634 to P948 residues) expressed in mammalian expression system by Kinomescan method.

Assay [5] concerns the target Tyrosine-protein kinase TXK (Homo sapiens, UniProt P42681). As to the kind of experiment: Binding affinity to wild-type human partial length TXK (L238 to W527 residues) expressed in bacterial expression system by Kinomescan method.
The target of assay [6] is Serine/threonine-protein kinase NLK (Homo sapiens, UniProt Q9UBE8). As to the kind of experiment: Binding affinity to wild-type human full length NLK expressed in bacterial expression system by Kinomescan method.
For another assay, the target named is Ephrin type-A receptor 8 (Homo sapiens, UniProt P29322). As to the kind of experiment: Binding affinity to human wild type partial length EphA8 (Q608 to C920 residues) expressed in bacterial expression system by Kinomescan method.
Assay [7] deals with Tyrosine-protein kinase Lck (Homo sapiens, UniProt P06239). In words: Binding affinity to wild-type human partial length LCK (R207 to P509 residues) expressed in bacterial expression system by Kinomescan method.
In the next assay the target is Ephrin type-A receptor 1 (Homo sapiens, UniProt P21709). In words: Binding affinity to human wild type partial length EphA1 (V588 to I913 residues) expressed in bacterial expression system by Kinomescan method.
The target in assay [8] is Bone morphogenetic protein receptor type-1B (Homo sapiens, UniProt O00238). In words: Binding affinity to human wild type partial length BMPR1B (D178 to L502 residues) expressed in mammalian expression system by Kinomescan method.
In assay [9] the target is Dual specificity mitogen-activated protein kinase kinase 5 (Homo sapiens, UniProt Q13163). As to the kind of experiment: Binding affinity to human wild type partial length MEK5 (L98 to P448 residues) expressed in mammalian expression system by Kinomescan method.
For assay [10], the target named is Receptor-interacting serine/threonine-protein kinase 2 (Homo sapiens, UniProt O43353). As to the kind of experiment: Binding affinity to wild-type human partial length RIPK2 (M1 to K310 residues) expressed in bacterial expression system by Kinomescan method.
Assay [11] has as its target T2, Tyrosine-protein kinase ABL1. In words: Binding affinity to human wild type partial length phosphorylated ABL1 (S229 to K512 residues) expressed in mammalian expression system by Kinomescan method.
The target in assay [12] is Interleukin-1 receptor-associated kinase 3 (Homo sapiens, UniProt Q9Y616). As to the kind of experiment: Binding affinity to human wild type partial length IRAK3 (V147 to E596 residues) expressed in bacterial expression system by Kinomescan method.
Assay [13] concerns the target T1, Cyclin-G-associated kinase. As to the kind of experiment: Inhibition of GAK (unknown origin) by in-cell pulse based assay.

Kd, inhibition and IC50 data for 13 compounds are collected here from ChEMBL document CHEMBL4665659, “Utilizing comprehensive and mini-kinome panels to optimize the selectivity of quinoline inhibitors for cyclin G associated kinase (GAK)” (Bioorg Med Chem Lett, 2019).

SMILES strings stand for the structures. Bounds are passed on as bounds.

T2 sequence (P00519 whole entry, the tested form may be a part): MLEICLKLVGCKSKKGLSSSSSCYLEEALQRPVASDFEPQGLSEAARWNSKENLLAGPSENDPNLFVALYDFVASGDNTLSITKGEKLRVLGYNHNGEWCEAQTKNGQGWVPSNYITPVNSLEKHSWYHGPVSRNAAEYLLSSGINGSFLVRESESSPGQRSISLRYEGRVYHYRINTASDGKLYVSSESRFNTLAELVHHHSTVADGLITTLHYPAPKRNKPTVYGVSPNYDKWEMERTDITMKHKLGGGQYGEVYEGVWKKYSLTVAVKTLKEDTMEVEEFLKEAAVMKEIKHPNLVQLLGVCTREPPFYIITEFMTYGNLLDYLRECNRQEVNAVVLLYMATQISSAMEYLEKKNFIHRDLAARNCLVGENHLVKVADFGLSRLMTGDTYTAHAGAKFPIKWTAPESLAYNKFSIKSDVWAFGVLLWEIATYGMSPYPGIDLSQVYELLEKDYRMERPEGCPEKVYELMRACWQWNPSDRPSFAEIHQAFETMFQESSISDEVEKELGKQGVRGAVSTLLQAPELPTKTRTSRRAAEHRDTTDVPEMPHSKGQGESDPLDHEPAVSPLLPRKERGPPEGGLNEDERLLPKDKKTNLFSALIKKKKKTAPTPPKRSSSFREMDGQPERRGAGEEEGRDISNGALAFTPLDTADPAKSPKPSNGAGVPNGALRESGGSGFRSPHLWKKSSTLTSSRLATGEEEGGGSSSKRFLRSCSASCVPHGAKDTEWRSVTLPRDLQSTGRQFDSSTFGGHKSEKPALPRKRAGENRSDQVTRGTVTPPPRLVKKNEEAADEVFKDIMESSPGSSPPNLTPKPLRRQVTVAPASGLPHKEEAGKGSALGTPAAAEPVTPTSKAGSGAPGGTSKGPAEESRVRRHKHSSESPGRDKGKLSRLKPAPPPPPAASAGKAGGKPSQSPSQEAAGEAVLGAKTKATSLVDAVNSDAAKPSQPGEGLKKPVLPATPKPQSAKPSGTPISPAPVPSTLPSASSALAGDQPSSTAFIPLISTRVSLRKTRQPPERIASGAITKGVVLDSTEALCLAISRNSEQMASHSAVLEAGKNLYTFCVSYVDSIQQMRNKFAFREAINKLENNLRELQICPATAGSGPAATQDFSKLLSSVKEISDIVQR
Activin receptor type-1, sequence (Q04771 whole entry, the tested form may be a part): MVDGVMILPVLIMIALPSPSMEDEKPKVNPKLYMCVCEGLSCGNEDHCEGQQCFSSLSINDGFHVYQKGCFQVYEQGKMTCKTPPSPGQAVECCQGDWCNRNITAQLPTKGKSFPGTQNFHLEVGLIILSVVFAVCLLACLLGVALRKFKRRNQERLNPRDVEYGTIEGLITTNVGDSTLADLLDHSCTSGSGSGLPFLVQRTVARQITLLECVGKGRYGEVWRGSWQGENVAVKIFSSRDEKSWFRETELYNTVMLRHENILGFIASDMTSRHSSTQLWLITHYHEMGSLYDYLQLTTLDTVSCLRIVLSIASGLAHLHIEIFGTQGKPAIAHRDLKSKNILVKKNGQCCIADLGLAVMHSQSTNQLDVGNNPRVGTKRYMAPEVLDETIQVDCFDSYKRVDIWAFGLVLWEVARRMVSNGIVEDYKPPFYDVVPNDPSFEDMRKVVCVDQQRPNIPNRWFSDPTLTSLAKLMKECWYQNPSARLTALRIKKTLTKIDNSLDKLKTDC
Ephrin type-A receptor 8, sequence (P29322 whole entry, the tested form may be a part): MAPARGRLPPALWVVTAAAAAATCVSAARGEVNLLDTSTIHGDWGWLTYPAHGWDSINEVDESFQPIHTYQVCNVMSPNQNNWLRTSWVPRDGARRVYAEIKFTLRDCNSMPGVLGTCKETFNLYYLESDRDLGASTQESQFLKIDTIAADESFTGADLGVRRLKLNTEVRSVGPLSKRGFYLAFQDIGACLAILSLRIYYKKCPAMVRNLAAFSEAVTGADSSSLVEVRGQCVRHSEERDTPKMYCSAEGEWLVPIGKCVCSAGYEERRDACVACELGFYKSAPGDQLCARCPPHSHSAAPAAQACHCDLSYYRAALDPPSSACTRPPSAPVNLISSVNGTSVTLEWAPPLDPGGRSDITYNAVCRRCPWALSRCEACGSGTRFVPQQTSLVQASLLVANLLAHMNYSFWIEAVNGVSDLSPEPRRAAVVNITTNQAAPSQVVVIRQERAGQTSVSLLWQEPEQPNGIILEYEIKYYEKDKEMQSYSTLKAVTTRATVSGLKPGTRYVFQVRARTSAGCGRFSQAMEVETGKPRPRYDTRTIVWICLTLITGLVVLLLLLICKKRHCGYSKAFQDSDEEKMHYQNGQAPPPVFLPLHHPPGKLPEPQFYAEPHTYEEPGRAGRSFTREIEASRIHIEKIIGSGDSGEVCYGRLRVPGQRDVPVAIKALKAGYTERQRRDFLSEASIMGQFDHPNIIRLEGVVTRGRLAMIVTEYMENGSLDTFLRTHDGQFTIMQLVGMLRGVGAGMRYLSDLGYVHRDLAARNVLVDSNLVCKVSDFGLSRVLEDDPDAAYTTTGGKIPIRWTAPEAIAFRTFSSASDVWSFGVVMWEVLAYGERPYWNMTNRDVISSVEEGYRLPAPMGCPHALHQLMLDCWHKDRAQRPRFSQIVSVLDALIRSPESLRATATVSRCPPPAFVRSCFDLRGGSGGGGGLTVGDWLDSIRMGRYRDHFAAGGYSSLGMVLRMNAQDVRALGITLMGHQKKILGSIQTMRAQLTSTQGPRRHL
Tyrosine-protein kinase Lck, sequence (P06239 whole entry, the tested form may be a part): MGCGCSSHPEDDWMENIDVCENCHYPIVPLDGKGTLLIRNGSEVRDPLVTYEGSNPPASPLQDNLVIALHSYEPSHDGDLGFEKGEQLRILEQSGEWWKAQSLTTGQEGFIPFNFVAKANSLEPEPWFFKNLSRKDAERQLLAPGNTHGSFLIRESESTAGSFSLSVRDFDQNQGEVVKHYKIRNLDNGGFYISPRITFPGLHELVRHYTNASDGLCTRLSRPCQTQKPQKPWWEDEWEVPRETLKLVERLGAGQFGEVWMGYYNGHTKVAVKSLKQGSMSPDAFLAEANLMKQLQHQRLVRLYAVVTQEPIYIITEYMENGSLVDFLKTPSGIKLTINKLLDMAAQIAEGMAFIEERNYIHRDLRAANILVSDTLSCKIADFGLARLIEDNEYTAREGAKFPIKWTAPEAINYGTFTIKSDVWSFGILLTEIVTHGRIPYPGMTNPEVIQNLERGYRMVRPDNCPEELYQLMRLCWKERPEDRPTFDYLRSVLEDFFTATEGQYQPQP
Ephrin type-A receptor 1, sequence (P21709 whole entry, the tested form may be a part): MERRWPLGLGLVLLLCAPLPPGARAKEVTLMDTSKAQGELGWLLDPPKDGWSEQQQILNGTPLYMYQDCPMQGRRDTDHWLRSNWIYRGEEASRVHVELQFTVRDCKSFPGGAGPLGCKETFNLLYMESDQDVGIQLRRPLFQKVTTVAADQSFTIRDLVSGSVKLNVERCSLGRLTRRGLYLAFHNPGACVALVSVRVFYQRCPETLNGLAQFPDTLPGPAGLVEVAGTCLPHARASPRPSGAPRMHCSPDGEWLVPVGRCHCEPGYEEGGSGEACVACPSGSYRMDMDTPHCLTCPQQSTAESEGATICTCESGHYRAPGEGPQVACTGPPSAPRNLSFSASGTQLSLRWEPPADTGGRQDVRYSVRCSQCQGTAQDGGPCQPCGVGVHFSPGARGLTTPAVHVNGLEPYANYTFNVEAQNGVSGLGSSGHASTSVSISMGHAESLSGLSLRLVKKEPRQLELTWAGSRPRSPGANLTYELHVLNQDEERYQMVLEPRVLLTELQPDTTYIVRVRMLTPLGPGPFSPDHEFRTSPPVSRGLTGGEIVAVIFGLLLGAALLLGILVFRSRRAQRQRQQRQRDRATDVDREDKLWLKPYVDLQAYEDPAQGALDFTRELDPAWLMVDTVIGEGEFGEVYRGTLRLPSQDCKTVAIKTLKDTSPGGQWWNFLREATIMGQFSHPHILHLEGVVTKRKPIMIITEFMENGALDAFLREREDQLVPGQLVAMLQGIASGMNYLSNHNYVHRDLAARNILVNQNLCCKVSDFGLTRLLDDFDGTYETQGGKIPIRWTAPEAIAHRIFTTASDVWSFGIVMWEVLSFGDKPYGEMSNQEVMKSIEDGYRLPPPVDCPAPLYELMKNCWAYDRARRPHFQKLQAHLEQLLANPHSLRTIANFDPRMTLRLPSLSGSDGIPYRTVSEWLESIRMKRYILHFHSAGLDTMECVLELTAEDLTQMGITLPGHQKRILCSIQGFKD
Atypical kinase COQ8A, mitochondrial, sequence (Q8NI60 whole entry): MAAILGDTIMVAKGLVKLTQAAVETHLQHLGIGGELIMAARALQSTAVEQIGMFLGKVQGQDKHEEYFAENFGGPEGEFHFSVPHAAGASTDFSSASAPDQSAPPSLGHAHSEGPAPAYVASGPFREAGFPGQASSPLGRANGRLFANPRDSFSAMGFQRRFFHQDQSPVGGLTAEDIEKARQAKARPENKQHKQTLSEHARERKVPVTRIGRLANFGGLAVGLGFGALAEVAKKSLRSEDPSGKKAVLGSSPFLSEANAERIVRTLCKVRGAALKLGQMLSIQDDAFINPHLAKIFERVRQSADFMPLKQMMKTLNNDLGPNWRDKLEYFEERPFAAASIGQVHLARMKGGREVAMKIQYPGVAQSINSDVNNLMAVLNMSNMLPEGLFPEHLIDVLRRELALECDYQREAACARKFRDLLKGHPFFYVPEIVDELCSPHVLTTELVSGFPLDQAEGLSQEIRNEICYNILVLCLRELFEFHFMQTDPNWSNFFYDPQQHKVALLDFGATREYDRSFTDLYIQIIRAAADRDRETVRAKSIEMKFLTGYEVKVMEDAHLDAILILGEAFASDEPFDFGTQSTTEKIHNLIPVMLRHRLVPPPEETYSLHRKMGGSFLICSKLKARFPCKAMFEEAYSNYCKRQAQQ

In assay [1], `COc1ccc2c(Nc3cc(OC)c(OC)c(OC)c3)ccnc2c1` gave a Kd of 35 nM. In addition, the inhibition in assay [2] stood at 20%.
In [1], `COc1cc(Nc2ccnc3ccc(Cl)cc23)cc(OC)c1OC` displayed a Kd of 6.3 nM.
Consider `COc1cc(Nc2ncnc3ccc(C(F)(F)F)cc23)cc(OC)c1OC`, for which the Kd in assay [1] came out at 130 nM.
On the same count and under the same terms, to `COc1cc(Nc2ccnc3ccccc23)cc(OC)c1OC` belongs 170 nM; to `COc1cc(Nc2ccnc3ccc(C(C)(C)C)cc23)cc(OC)c1OC`, 34 nM.
Take `COc1cc(Nc2ccnc3ccc(Br)cc23)cc(OC)c1OC`: the Kd in assay [3] came out at 1200 nM; on Activin receptor type-1, 1000 nM; in assay [4], 260 nM; at Ephrin type-B receptor 6, 710 nM.
Regarding `COc1cc(Nc2ccnc3ccc(C(F)(F)F)cc23)cc(OC)c1OC`, the Kd in assay [5] stood at 1400 nM; in [6] it was 690 nM; in [3], 1900 nM; at Ephrin type-A receptor 8, 1100 nM; in [7], 1100 nM; on Ephrin type-A receptor 1, 3100 nM. For the same compound, the equilibrium dissociation constant (Kd) on Ephrin type-B receptor 6 worked out at 1600 nM.
In the case of `COc1cc2nccc(Nc3cc(OC)c(OC)c(OC)c3)c2cc1OC`, the Kd stood at 11 nM in assay [1]; 170 nM in assay [3]; 280 nM in assay [8]; 1300 nM at Activin receptor type-1; 560 nM on Ephrin type-A receptor 8; 430 nM in assay [9]. Moreover, the Kd in assay [10] stood at 190 nM; in assay [11], 92 nM; in [7], 350 nM; on Ephrin type-A receptor 1, 1300 nM; at Ephrin type-B receptor 6, 130 nM.
As for `COc1ccc2nccc(Nc3cc(OC)c(OC)c(OC)c3)c2c1`, in assay [1], the Kd came to 48 nM.
Turning to `COc1cc(Nc2ccnc3ccc(C#N)cc23)cc(OC)c1OC`, in assay [1], binding was put at a Kd of 4.9 nM.
For the compound `COc1cc(Nc2ccnc3ccc(I)cc23)cc(OC)c1OC`, the affinity in [1], expressed as Kd, was 8.6 nM.
In the case of `COc1cc(N(C)c2ccnc3ccc(C(F)(F)F)cc23)cc(OC)c1OC`, the Kd worked out at 9900 nM in assay [1] and 480 nM in [12]. For the same compound, the IC50 in assay [13] is over 10000 nM.
`COc1cc(Nc2cc(C)nc3ccc(C(F)(F)F)cc23)cc(OC)c1OC` had a Kd in assay [1] of over 30000 nM. Besides, the IC50 in assay [13] was over 10000 nM.
